Holding throughout (format): in vivo
For one assay, the system named is southern armyworm. The assay is described as follows: Southern armyworm foliar spray test on bean plants. To be noted: Spodoptera eridania, 120 h, read-out: pest mortality SAW. The method, then:
(§1) For mite, aphid, southern armyworm, Mexican bean beetle, and tobacco budworm tests, a solution or suspension was prepared by adding 10 mg of the test compound to a solution of 160 mg of dimethylformamide, 838 mg of acetone, 2 mg of a 3:1 ratio of Triton X-172 : Triton X-152 (respectively, mainly anionic and nonionic low foam emulsifiers which are each anhydrous blends of alkylaryl polyether alcohols with organic sulfonates), and […] of water. The result was a concentration of 100 ppm of the test compound.
(§2) Southern armyworm: Potted bean plants, were placed on a revolving turntable and sprayed with 100 ml of the 100 ppm test compound formulation by use of a DeVilbiss spray gun set at 40 psig air pressure. As an untreated control, 100 ml of a water-acetone-DMF-emulsifier solution, containing no test compound, were also sprayed on plants. A treated control with a commercial technical compound, either cypermethrin or sulprofos, formulated in the same manner, was tested as a standard. When dry, the leaves were placed in plastic cups lined with moistened filter paper. Five randomly selected second instar southern armyworm larvae were introduced into each cup which was closed and held for five days. Larvae which were unable to move the length of the body, even upon stimulation by prodding, were considered dead.

For a further assay, the system named is Mexican bean beetle. As to the kind of experiment: Mexican bean beetle foliar spray test on bean plants. To be noted: Epilachna varivestis, 120 h, read-out: pest mortality MBB. How it is done: as §1
as §2, with “Mexican bean beetle:” for “Southern armyworm:”, “plants” for “plants,”, “formulation, sufficient to wet the plants to runoff,” for “formulation”, “Mexican bean beetle” for “southern armyworm”

In another assay the test system is tobacco budworm. As to the kind of experiment: Tobacco budworm foliar spray test on cotton plants. The note with it: Heliothis virescens, 120 h, read-out: pest mortality TBW. How it is done: as §1
Tobacco budworm: Potted cotton plants were placed on a revolving turntable and sprayed with 100 ml of the 100 ppm test compound formulation by use of a DeVilbiss spray gun set at 40 psig air pressure. As an untreated control, 100 ml of a water-acetone-DMF-emulsifier solution, containing no test compound, were also sprayed on plants. A treated control with a commercial technical compound, either cypermethrin or sulprofos, formulated in the same manner, was tested as a standard. When dry, the leaves were placed in plastic dishes containing a piece of filter paper and a moistened dental wick. One randomly selected second instar tobacco budworm larva was then introduced into each cup which was closed and held for five days. Larvae unable to move the length of their body, even upon stimulation by prodding, were considered dead.

A further assay relates to housefly. As to the kind of experiment: House fly bait test. The note with it: Musca domestica, read-out: pest mortality HF. The source says: For housefly tests, the formulation was initially prepared in a similar manner to the above, but in 16.3 g of water with corresponding adjustment of other components, providing a 200 ppm concentration. Final dilution with an equal volume of a 20% by weight aqueous solution of sucrose provided a 100 ppm concentration of the test compound. When necessary, sonication was provided to insure complete dispersion.
House fly: Four to six day old adult house flies were reared according to the specifications of the Chemical Specialties Manufacturing Association (Blue Book, McNair-Dorland Co., N.Y. 1954; pages 243-244, 261) under controlled conditions. The flies were immobilized by anesthetizing with carbon dioxide and twenty five immobilized individuals, males and females, were transferred to a cage consisting of a standard food strainer and a wrapping-paper-covered surface. Ten ml of the 100 ppm test compound formulation were added to a soufflé cup containing an absorbent cotton pad. As an untreated control, 10 ml of a water-acetone-DMF-emulsifier-sucrose solution, containing no test compound, were applied in a similar manner. A treated control with a commercial technical compound, malathion, formulated in the same manner, was tested as a standard. The bait cup was introduced inside the food strainer prior to admitting the anesthetized flies.

Where [1] appears, read: foliar application at 100 ppm, second instar larvae, held five days.
[2] abbreviates: bait application at 100 ppm, adult flies, after 24 hours.

SMILES strings stand for the structures. Read-outs that look alike come from different tables or passages of the source.

Regarding `COCC(=O)Nc1c(SC(F)(F)F)c(C#N)nn1-c1c(Cl)cc(C(F)(F)F)cc1Cl` [Compound 1, 1-(2,6-dichloro-4-trifluoromethylphenyl)-3-cyano-4-trifluoromethylsulfenyl-5-(methoxyacetamido)pyrazole], the mortality at 100 ppm in the assay with southern armyworm (foliar), with Mexican bean beetle (foliar), in the assay on tobacco budworm (foliar) and in the assay with housefly (24 h) was 70 to 100% throughout.

In the case of `COCCOCC(=O)Nc1c(SC(F)(F)F)c(C#N)nn1-c1c(Cl)cc(C(F)(F)F)cc1Cl` [Compound 3], the mortality at 100 ppm in the assay on southern armyworm (setting [1]), in the assay with Mexican bean beetle (setting [1]), in the assay with tobacco budworm (setting [1]) and with housefly (setting [2]) was 70 to 100% throughout.

As to `COCCOCCOCC(=O)Nc1c(SC(F)(F)F)c(C#N)nn1-c1c(Cl)cc(C(F)(F)F)cc1Cl` [Compound 4], the mortality at 100 ppm with southern armyworm (setting [1]), with tobacco budworm (setting [1]) and with housefly (setting [2]) was 70 to 100% throughout.

Consider `COC(=O)CCC(=O)Nc1c(SC(F)(F)F)c(C#N)nn1-c1c(Cl)cc(C(F)(F)F)cc1Cl` [Compound 5], for which the mortality at 100 ppm in the assay on southern armyworm (setting [1]), in the assay on tobacco budworm (setting [1]) and with housefly (setting [2]) was 70 to 100% each time.

Take `CCCCOCC(=O)Nc1c(SC(F)(F)F)c(C#N)nn1-c1c(Cl)cc(C(F)(F)F)cc1Cl` [Compound 6]: the mortality at 100 ppm with southern armyworm (setting [1]), in the assay with tobacco budworm (setting [1]) and in the assay with housefly (setting [2]) was 70 to 100% in each case.

Regarding `COCCOCCOCC(=O)Nc1c([S+]([O-])C(F)(F)F)c(C#N)nn1-c1c(Cl)cc(C(F)(F)F)cc1Cl` (stereo not shown) [Compound 10], in the assay with southern armyworm (setting [1]), the mortality at 100 ppm lay in the range of 70 to 100%.

`COCC(=O)Nc1c(SC(F)(Cl)Cl)c(C#N)nn1-c1c(Cl)cc(C(F)(F)F)cc1Cl` [Compound 14]: the mortality at 100 ppm in the assay on southern armyworm (setting [1]), in the assay with tobacco budworm (setting [1]) and with housefly (setting [2]) was 70 to 100% each time.

In the case of `CCOCC(=O)Nc1c(SC(F)(Cl)Cl)c(C#N)nn1-c1c(Cl)cc(C(F)(F)F)cc1Cl` [Compound 15], the mortality at 100 ppm in the assay with southern armyworm (setting [1]), with tobacco budworm (setting [1]) and in the assay on housefly (setting [2]) was 70 to 100% each time.

As for `COCCOCC(=O)Nc1c(SC(F)(Cl)Cl)c(C#N)nn1-c1c(Cl)cc(C(F)(F)F)cc1Cl` [Compound 16], the mortality at 100 ppm in the assay with southern armyworm (setting [1]), with tobacco budworm (setting [1]) and in the assay on housefly (setting [2]) was 70 to 100% throughout.

Take `COCC(=O)Nc1c([S+]([O-])C(F)F)c(C#N)nn1-c1c(Cl)cc(C(F)(F)F)cc1Cl` (stereo not shown) [Compound 19]: the mortality at 100 ppm with southern armyworm (setting [1]) and with housefly (setting [2]) was 70 to 100% throughout.

As for `CC(C)OCC(=O)Nc1c(SC(F)(F)F)c(C#N)nn1-c1c(Cl)cc(C(F)(F)F)cc1Cl` [Compound 20], the mortality at 100 ppm in the assay on southern armyworm (setting [1]), in the assay on Mexican bean beetle (setting [1]), with tobacco budworm (setting [1]) and in the assay with housefly (setting [2]) was 70 to 100% throughout.

For `COC(C)C(=O)Nc1c(SC(F)(F)F)c(C#N)nn1-c1c(Cl)cc(C(F)(F)F)cc1Cl` (stereo not shown) [Compound 21], the mortality at 100 ppm in the assay on southern armyworm (setting [1]), in the assay on tobacco budworm (setting [1]) and with housefly (setting [2]) was 70 to 100% each time.

On to `COC(C(=O)Nc1c(SC(F)(F)F)c(C#N)nn1-c1c(Cl)cc(C(F)(F)F)cc1Cl)C(C)C` (stereo not shown) [Compound 23], for which the mortality at 100 ppm in the assay on southern armyworm (setting [1]) and with tobacco budworm (setting [1]) was 70 to 100% in each case.

For the compound `COC(C)C(=O)Nc1c(SC(F)(Cl)Cl)c(C#N)nn1-c1c(Cl)cc(C(F)(F)F)cc1Cl` (stereo not shown) [Compound 26], the mortality at 100 ppm with southern armyworm (setting [1]), in the assay with tobacco budworm (setting [1]) and in the assay on housefly (setting [2]) was 70 to 100% in each case.

As to `COC(C(=O)Nc1c(SC(F)(Cl)Cl)c(C#N)nn1-c1c(Cl)cc(C(F)(F)F)cc1Cl)C(C)C` (stereo not shown) [Compound 27], the mortality at 100 ppm in the assay with southern armyworm (setting [1]) and in the assay with tobacco budworm (setting [1]) was 70 to 100% each time.

As for `COC(C(=O)Nc1c([S+]([O-])C(F)(Cl)Cl)c(C#N)nn1-c1c(Cl)cc(C(F)(F)F)cc1Cl)C(C)C` (stereo not shown) [Compound 29], the mortality at 100 ppm with southern armyworm (setting [1]) and in the assay on Mexican bean beetle (setting [1]) was 70 to 100% in each case.

Turning to `COC(C)(C)C(=O)Nc1c(SC(F)(F)F)c(C#N)nn1-c1c(Cl)cc(C(F)(F)F)cc1Cl` [Compound 30], the mortality at 100 ppm in the assay with southern armyworm (setting [1]) and in the assay on tobacco budworm (setting [1]) was 70 to 100% each time.

Consider `COC(C)(C)C(=O)Nc1c(SC(F)(Cl)Cl)c(C#N)nn1-c1c(Cl)cc(C(F)(F)F)cc1Cl` [Compound 31], for which the mortality at 100 ppm in the assay with southern armyworm (setting [1]) and in the assay on tobacco budworm (setting [1]) was 70 to 100% throughout.

Consider `CCCCCCOCC(=O)Nc1c(SC(F)(F)F)c(C#N)nn1-c1c(Cl)cc(C(F)(F)F)cc1Cl` [Compound 33], for which, in the assay with tobacco budworm (setting [1]), the mortality at 100 ppm was 70 to 100%.

As to `CC(C)COCC(=O)Nc1c(SC(F)(F)F)c(C#N)nn1-c1c(Cl)cc(C(F)(F)F)cc1Cl` [Compound 35], the mortality at 100 ppm in the assay on southern armyworm (setting [1]), in the assay with Mexican bean beetle (setting [1]) and in the assay on housefly (setting [2]) was 70 to 100% each time.

Turning to `CCCCCCCCCCCCOCC(=O)Nc1c(SC(F)(F)F)c(C#N)nn1-c1c(Cl)cc(C(F)(F)F)cc1Cl` [Compound 36], the mortality at 100 ppm in the assay on housefly (setting [2]) fell in the range of 70 to 100%.

For the compound `CCC(OC)C(=O)Nc1c(SC(F)(Cl)Cl)c(C#N)nn1-c1c(Cl)cc(C(F)(F)F)cc1Cl` (stereo not shown) [Compound 37], the mortality at 100 ppm in the assay with southern armyworm (setting [1]), in the assay with tobacco budworm (setting [1]) and with housefly (setting [2]) was 70 to 100% throughout.

With `CCC(OC)C(=O)Nc1c(SC(F)(F)F)c(C#N)nn1-c1c(Cl)cc(C(F)(F)F)cc1Cl` (stereo not shown) [Compound 38], the mortality at 100 ppm in the assay on southern armyworm (setting [1]), in the assay with tobacco budworm (setting [1]) and in the assay with housefly (setting [2]) was 70 to 100% throughout.

Take `CCOC(CC)C(=O)Nc1c(SC(F)(F)F)c(C#N)nn1-c1c(Cl)cc(C(F)(F)F)cc1Cl` (stereo not shown) [Compound 40]: the mortality at 100 ppm in the assay with southern armyworm (setting [1]) and in the assay with housefly (setting [2]) was 70 to 100% each time.

Consider `CCCC(OCC)C(=O)Nc1c(SC(F)(F)F)c(C#N)nn1-c1c(Cl)cc(C(F)(F)F)cc1Cl` (stereo not shown) [Compound 41], for which the mortality at 100 ppm in the assay with southern armyworm (setting [1]) and in the assay on housefly (setting [2]) was 70 to 100% each time.

On to `CC(C)COC(C)C(=O)Nc1c(SC(F)(F)F)c(C#N)nn1-c1c(Cl)cc(C(F)(F)F)cc1Cl` (stereo not shown) [Compound 43], for which the mortality at 100 ppm in the assay on southern armyworm (setting [1]), with tobacco budworm (setting [1]) and in the assay on housefly (setting [2]) was 70 to 100% throughout.

Consider `CC(C)COC(C)C(=O)Nc1c([S+]([O-])C(F)(F)F)c(C#N)nn1-c1c(Cl)cc(C(F)(F)F)cc1Cl` (stereo not shown) [Compound 44], for which the mortality at 100 ppm with southern armyworm (setting [1]), with Mexican bean beetle (setting [1]) and with housefly (setting [2]) was 70 to 100% in each case.

Take `CCOC(C)C(=O)Nc1c(SC(F)(Cl)Cl)c(C#N)nn1-c1c(Cl)cc(C(F)(F)F)cc1Cl` (stereo not shown) [Compound 45]: the mortality at 100 ppm in the assay on southern armyworm (setting [1]), in the assay with Mexican bean beetle (setting [1]), in the assay with tobacco budworm (setting [1]) and in the assay with housefly (setting [2]) was 70 to 100% throughout.

For `C#CCN(C(=O)COC)c1c(SC(F)(F)F)c(C#N)nn1-c1c(Cl)cc(OC(F)(F)F)cc1Cl` [Compound 48], the mortality at 100 ppm in the assay on southern armyworm (setting [1]), with tobacco budworm (setting [1]) and in the assay on housefly (setting [2]) was 70 to 100% each time.

In the case of `COCC(=O)Nc1c([N+](=O)[O-])c(Br)nn1-c1c(Cl)cc(C(F)(F)F)cc1Cl` [Compound 49], the mortality at 100 ppm in the assay with southern armyworm (setting [1]) and with tobacco budworm (setting [1]) was 70 to 100% in each case.
